Laboratory results reported in patent US11566022B2, “3-(5-methoxy-1-oxoisoindolin-2-yl)piperidine-2,6-dione derivatives and uses thereof” (NOVARTIS AG, priority 2019, dated 2023).

Molecular target: HiBit-WIZ fusion protein (Homo sapiens, UniProt O95785+Q96SW2)
Test: Quantification of WIZ protein levels in HiBit tag fusion protein assay (WIZ HiBit assay in 293T cells)
Type: cell-based
Set-up: Dmax: dose or concentration left out as unconfirmed
Conditions: for Dmax / remaining activity at up to 25 µM: HEK-293T, 293T cells; for Dmax: 100 minus Amax, read-out: % degradation of WIZ (100-Amax); for remaining activity at up to 25 µM: DMSO-normalized, curve-fitted percentage of WIZ-HiBit remaining at 25 uM, read-out: WIZ Amax; for DC50: WIZ HiBit assay in 293T cells, 10-point, 5-fold dose response, highest concentration 25 μM, about 18 hours, read-out: WIZ AC50

Sequence of HiBit-WIZ fusion protein (O95785 whole entry, the tested form may be a part): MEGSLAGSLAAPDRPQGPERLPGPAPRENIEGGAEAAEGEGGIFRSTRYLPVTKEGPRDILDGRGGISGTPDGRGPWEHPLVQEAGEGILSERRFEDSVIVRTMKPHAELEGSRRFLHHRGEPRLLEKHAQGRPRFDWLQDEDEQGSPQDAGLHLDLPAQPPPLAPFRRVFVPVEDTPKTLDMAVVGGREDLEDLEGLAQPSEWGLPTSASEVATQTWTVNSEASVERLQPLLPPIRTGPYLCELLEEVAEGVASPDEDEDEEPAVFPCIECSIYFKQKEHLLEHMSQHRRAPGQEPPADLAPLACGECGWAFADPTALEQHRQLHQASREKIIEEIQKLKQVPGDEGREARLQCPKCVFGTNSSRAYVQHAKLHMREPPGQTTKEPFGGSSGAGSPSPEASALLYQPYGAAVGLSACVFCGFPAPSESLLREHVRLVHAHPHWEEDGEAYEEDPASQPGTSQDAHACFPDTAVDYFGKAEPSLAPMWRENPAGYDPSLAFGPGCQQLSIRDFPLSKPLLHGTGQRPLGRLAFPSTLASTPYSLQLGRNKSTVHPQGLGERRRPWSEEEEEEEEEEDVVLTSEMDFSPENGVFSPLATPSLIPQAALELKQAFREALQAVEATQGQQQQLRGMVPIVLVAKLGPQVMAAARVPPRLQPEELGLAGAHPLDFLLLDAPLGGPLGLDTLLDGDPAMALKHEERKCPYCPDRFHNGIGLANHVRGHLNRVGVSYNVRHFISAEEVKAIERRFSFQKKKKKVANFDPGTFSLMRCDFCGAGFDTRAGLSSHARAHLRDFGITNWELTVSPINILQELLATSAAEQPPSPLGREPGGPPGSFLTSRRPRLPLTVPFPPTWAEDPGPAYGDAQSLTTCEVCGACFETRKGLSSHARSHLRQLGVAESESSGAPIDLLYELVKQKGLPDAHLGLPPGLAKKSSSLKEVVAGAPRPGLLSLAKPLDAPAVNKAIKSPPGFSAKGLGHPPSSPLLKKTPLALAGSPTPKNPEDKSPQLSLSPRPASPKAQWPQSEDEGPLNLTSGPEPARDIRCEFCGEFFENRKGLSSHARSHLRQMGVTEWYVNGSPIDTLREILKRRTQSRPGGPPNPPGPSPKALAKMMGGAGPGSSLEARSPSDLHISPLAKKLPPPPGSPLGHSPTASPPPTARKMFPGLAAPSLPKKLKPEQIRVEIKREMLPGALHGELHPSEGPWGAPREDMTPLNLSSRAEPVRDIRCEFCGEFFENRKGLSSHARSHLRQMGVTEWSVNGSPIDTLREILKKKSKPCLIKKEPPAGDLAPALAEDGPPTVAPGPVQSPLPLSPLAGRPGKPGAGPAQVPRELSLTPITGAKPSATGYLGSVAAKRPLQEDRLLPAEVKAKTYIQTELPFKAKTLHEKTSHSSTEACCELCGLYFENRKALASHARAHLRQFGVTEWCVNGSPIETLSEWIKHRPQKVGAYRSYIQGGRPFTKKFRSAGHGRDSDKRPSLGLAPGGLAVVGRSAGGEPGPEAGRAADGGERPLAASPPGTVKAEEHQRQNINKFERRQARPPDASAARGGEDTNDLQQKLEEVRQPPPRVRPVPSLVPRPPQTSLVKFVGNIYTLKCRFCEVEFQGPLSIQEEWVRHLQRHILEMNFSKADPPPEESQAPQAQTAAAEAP
Sequence of HiBit-WIZ fusion protein (Q96SW2 whole entry, the tested form may be a part): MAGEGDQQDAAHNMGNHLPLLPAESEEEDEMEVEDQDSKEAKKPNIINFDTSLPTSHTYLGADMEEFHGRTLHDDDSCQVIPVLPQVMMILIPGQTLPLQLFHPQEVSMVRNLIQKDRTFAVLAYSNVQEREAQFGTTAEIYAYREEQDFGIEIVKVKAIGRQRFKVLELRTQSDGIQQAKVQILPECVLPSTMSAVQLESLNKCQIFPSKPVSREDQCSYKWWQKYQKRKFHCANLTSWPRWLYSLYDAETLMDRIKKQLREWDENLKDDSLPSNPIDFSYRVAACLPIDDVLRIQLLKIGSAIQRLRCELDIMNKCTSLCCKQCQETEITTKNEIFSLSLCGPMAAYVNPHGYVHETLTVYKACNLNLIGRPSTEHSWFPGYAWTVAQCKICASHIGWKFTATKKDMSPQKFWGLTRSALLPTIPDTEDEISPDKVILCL
Sequence of HiBit-WIZ fusion protein (Q16531 whole entry partner, the tested form may be a part): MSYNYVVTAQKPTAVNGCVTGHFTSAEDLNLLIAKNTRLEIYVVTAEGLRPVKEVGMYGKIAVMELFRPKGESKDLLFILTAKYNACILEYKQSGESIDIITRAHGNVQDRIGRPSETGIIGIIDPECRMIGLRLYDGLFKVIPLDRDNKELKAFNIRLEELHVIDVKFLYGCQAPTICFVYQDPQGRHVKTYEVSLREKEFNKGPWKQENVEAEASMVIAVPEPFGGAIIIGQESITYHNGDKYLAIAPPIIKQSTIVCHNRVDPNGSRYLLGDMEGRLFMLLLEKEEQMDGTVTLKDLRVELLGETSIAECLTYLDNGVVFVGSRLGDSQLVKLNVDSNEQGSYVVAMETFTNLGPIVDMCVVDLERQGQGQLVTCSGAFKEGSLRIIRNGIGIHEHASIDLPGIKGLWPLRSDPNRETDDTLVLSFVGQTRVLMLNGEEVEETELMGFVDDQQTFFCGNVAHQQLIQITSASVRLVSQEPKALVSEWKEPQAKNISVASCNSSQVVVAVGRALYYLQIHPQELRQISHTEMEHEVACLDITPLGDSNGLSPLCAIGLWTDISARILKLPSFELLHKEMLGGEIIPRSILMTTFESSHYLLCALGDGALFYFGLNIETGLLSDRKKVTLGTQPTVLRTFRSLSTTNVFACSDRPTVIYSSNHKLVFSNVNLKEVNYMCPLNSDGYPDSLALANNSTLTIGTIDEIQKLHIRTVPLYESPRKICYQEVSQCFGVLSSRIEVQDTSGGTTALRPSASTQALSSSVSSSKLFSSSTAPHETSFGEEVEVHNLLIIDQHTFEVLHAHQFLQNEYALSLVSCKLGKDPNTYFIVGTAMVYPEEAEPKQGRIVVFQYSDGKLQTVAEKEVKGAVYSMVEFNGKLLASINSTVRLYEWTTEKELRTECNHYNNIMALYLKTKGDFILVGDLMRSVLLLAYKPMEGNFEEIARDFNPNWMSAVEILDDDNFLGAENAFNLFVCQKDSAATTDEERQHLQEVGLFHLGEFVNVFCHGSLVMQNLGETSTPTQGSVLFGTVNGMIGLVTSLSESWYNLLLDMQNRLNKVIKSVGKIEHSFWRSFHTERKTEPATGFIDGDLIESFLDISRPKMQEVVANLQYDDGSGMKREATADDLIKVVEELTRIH

| Dmax | remaining activity at up to 25 µM | DC50 | SMILES |
| --- | --- | --- | --- |
| 80.5% | 19.5% | 0.019 µM | O=C1CCC(N2Cc3cc(OC[C@H]4CCCCN4Cc4ccc5ocnc5c4)ccc3C2=O)C(=O)N1 (stereo partly drawn) [Compound I-201, 3-(5-(((R)-1-(benzo[d]oxazol-5-ylmethyl)piperidin-2-yl)methoxy)-1-oxoisoindolin-2-yl)piperidine-2,6-dione] |
| 0% | 100% | > 25 µM | CC(C)n1nccc1C(=O)N1CCCC[C@H]1COc1ccc2c(c1)CN(C1CCC(=O)NC1=O)C2=O (stereo partly drawn) [Compound I-72ez] |
| 98.5% | 1.5% | 0.002 µM | CCN(CC)c1ccc(CN2CCCC[C@@H]2COc2ccc3c(c2)CN(C2CCC(=O)NC2=O)C3=O)cn1 (stereo partly drawn) [Compound I-50eb] |
| 52.9% | 47.1% | > 25 µM | O=C1CCC(N2Cc3cc(OC[C@@H]4CCCCN4CC4CCN(C(=O)OCc5ccccc5)CC4)ccc3C2=O)C(=O)N1 (stereo partly drawn) [Compound I-50cr] |
| 41.1% | 58.9% | > 25 µM | O=C1CCC(N2Cc3cc(OC[C@@H]4CCCCN4Cc4cocn4)ccc3C2=O)C(=O)N1 (stereo partly drawn) [Compound I-50e] |
| 7.2% | 92.8% | > 25 µM | CN(C)CC(=O)N1CCCC[C@H]1COc1ccc2c(c1)CN(C1CCC(=O)NC1=O)C2=O (stereo partly drawn) [Compound I-72jk] |
| 75.2% | 24.9% | 0.02 µM | CCc1cc(CN2CCCC[C@@H]2COc2ccc3c(c2)CN(C2CCC(=O)NC2=O)C3=O)ccc1C1CCN(C(=O)OC(C)(C)C)CC1 (stereo partly drawn) [Compound I-155, Tert-butyl 4-(4-(((2R)-2-(((2-(2,6-dioxopiperidin-3-yl)-1-oxoisoindolin-5-yl)oxy)methyl)piperidin-1-yl)methyl)-2-ethylphenyl)piperidine-1-carboxylate] |
| 82.6% | 17.4% | 0.816 µM | O=C1CCC(N2Cc3cc(OC[C@@H]4CCCCN4Cc4cccn4S(=O)(=O)c4ccccc4)ccc3C2=O)C(=O)N1 (stereo partly drawn) [Compound I-50f] |
| 58.4% | 41.6% | 12.5 µM | O=C1CCC(N2Cc3cc(OC[C@@H]4CCCCN4Cc4ccc(N5CCCC5=O)cc4)ccc3C2=O)C(=O)N1 (stereo partly drawn) [Compound I-50o] |
| 77.8% | 22.2% | 1.35 µM | Cc1cc(-c2onc(C)c2C(=O)N2CCCC[C@H]2COc2ccc3c(c2)CN(C2CCC(=O)NC2=O)C3=O)no1 (stereo partly drawn) [Compound I-72ep] |
| 88.9% | 11.1% | 0.00052 µM | COc1ccc(CN2CCCC[C@@H]2COc2ccc3c(c2)CN(C2CCC(=O)NC2=O)C3=O)c(OC)c1 (stereo partly drawn) [Compound I-131, 3-(5-(((R)-1-(2,4-dimethoxybenzyl)piperidin-2-yl)methoxy)-1-oxoisoindolin-2-yl)piperidine-2,6-dione] |
| 12.1% | 87.9% | > 25 µM | CCN(CC)CC(=O)N1CCCC[C@H]1COc1ccc2c(c1)CN(C1CCC(=O)NC1=O)C2=O (stereo partly drawn) [Compound I-72cp] |
| 53.8% | 46.2% | 13.8 µM | O=C1CCC(N2Cc3cc(OC[C@@H]4CCCCN4C(=O)c4ccc(N5CCOCC5)cc4)ccc3C2=O)C(=O)N1 (stereo partly drawn) [Compound I-72an] |
| 6.8% | 93.2% | > 25 µM | COc1ccc(C(=O)N2CCCC[C@H]2COc2ccc3c(c2)CN(C2CCC(=O)NC2=O)C3=O)nn1 (stereo partly drawn) [Compound I-72gm] |
| 65.4% | 34.6% | 3.49 µM | O=C1CCC(N2Cc3cc(OC[C@@H]4CCCCN4Cc4ccc(C(=O)N5CCCC5)cc4)ccc3C2=O)C(=O)N1 (stereo partly drawn) [Compound I-50j] |
| 21.1% | 78.9% | > 25 µM | CC(C)n1cc(C(=O)N2CCCC[C@H]2COc2ccc3c(c2)CN(C2CCC(=O)NC2=O)C3=O)cn1 (stereo partly drawn) [Compound I-72dg] |
| 21.5% | 78.5% | > 25 µM | O=C1CCC(N2Cc3cc(OC[C@@H]4CCCCN4C(=O)c4cccc5cnccc45)ccc3C2=O)C(=O)N1 (stereo partly drawn) [Compound I-72j] |
| 97.3% | 2.68% | 0.019 µM | Cc1nc(C)c(CN2CCCC[C@@H]2COc2ccc3c(c2)CN(C2CCC(=O)NC2=O)C3=O)s1 (stereo partly drawn) [Compound I-145] |
| 94.1% | 5.9% | 0.044 µM | O=C1CCC(N2Cc3cc(OC[C@H]4CCCCN4Cc4ccc(N5CCN(Cc6ccccc6)CC5)cc4)ccc3C2=O)C(=O)N1 (stereo partly drawn) [Compound I-50br] |
| 87.6% | 12.4% | 0.051 µM | CC(C)(C)OC(=O)N1CCC(c2ccccc2CN2CCCC[C@@H]2COc2ccc3c(c2)CN(C2CCC(=O)NC2=O)C3=O)CC1 (stereo partly drawn) [Compound I-122, Tert-butyl 4-(2-(((2R)-2-(((2-(2,6-dioxopiperidin-3-yl)-1-oxoisoindolin-5-yl)oxy)methyl)piperidin-1-yl)methyl)phenyl)piperidine-1-carboxylate] |
| 6.5% | 93.5% | > 25 µM | O=C1CCC(N2Cc3cc(OC[C@@H]4CCCCN4C(=O)CCc4c[nH]cn4)ccc3C2=O)C(=O)N1 (stereo partly drawn) [Compound I-72gk] |

| Dmax | remaining activity at up to 25 µM | DC50 | SMILES |
| --- | --- | --- | --- |
| 30.1% | 69.9% | > 25 µM | Cn1c(CN2CCCC[C@H]2COc2ccc3c(c2)CN(C2CCC(=O)NC2=O)C3=O)nc2ccccc21 (stereo partly drawn) [Compound I-50ap] |
| 93.4% | 6.64% | 0.0019 µM | CC(C)(C)OC(=O)N1CCC(c2ccc(CN3CCCC[C@@H]3COc3ccc4c(c3)CN(C3CCC(=O)NC3=O)C4=O)cc2)CC1 (stereo partly drawn) [Compound I-127, Tert-butyl 4-(4-(((2R)-2-(((2-(2,6-dioxopiperidin-3-yl)-1-oxoisoindolin-5-yl)oxy)methyl)piperidin-1-yl)methyl)phenyl)piperidine-1-carboxylate] |
| 68.7% | 31.3% | 2.2 µM | O=C1CCC(N2Cc3cc(OC[C@H]4CCCCN4Cc4ccncc4)ccc3C2=O)C(=O)N1 (stereo partly drawn) [Compound I-146] |
| 3.9% | 96.1% | > 25 µM | O=C1CCC(N2Cc3cc(OC[C@@H]4CCCCN4C(=O)c4cccc(Cn5cncn5)c4)ccc3C2=O)C(=O)N1 (stereo partly drawn) [Compound I-72bi] |
| 52.2% | 47.8% | > 25 µM | COc1ccc(CN2CCCC[C@H]2COc2ccc3c(c2)CN(C2CCC(=O)NC2=O)C3=O)cc1F (stereo partly drawn) [Compound I-50a] |
| 92.3% | 7.7% | 0.1 µM | O=C1CCC(N2Cc3cc(OC[C@H]4CCCCN4Cc4ccccc4OCCN4CCOCC4)ccc3C2=O)C(=O)N1 (stereo partly drawn) [Compound I-50ed] |
| 40% | 60% | > 25 µM | O=C1CCC(N2Cc3cc(OC[C@@H]4CCCCN4Cc4ccccc4OCC(=O)N4CCCCC4)ccc3C2=O)C(=O)N1 (stereo partly drawn) [Compound I-50am] |
| 59.1% | 40.9% | 9.24 µM | CCOC(=O)c1n[nH]cc1CN1CCCC[C@@H]1COc1ccc2c(c1)CN(C1CCC(=O)NC1=O)C2=O (stereo partly drawn) [Compound I-50ch] |
| 70.2% | 29.8% | 2.05 µM | O=C1CCC(N2Cc3cc(OC[C@@H]4CCCCN4C(=O)c4cnc(N5CCCCC5)s4)ccc3C2=O)C(=O)N1 (stereo partly drawn) [Compound I-72fi] |
| 17.1% | 82.9% | > 25 µM | O=C1CCC(N2Cc3cc(OC[C@@H]4CCCCN4C(=O)c4csc(N5CCOCC5)n4)ccc3C2=O)C(=O)N1 (stereo partly drawn) [Compound I-72e] |
| 14.4% | 85.6% | > 25 µM | Cc1onc(-c2ccccc2)c1CC(=O)N1CCCC[C@H]1COc1ccc2c(c1)CN(C1CCC(=O)NC1=O)C2=O (stereo partly drawn) [Compound I-72gp] |
| 19.1% | 80.9% | > 25 µM | CCn1cc(C(=O)N2CCCC[C@H]2COc2ccc3c(c2)CN(C2CCC(=O)NC2=O)C3=O)c(C)n1 (stereo partly drawn) [Compound I-72gw] |
| 38.1% | 61.9% | > 25 µM | N#Cc1ccn2cc(CN3CCCC[C@H]3COc3ccc4c(c3)CN(C3CCC(=O)NC3=O)C4=O)nc2c1 (stereo partly drawn) [Compound I-50c] |
| 100% | 0% | 0.017 µM | O=C1CCC(N2Cc3cc(OC[C@H]4CCCCN4Cc4cnn(C5CCCCC5)c4)ccc3C2=O)C(=O)N1 (stereo partly drawn) [Compound I-50ec] |
| 17.6% | 82.4% | > 25 µM | N#Cc1cc(CN2CCCC[C@H]2COc2ccc3c(c2)CN(C2CCC(=O)NC2=O)C3=O)ccn1 (stereo partly drawn) [Compound I-50bl] |
| 24.5% | 75.5% | > 25 µM | N#Cc1cccc(Cn2cccc(CN3CCCC[C@H]3COc3ccc4c(c3)CN(C3CCC(=O)NC3=O)C4=O)c2=O)c1 (stereo partly drawn) [Compound I-50aw] |
| 8.4% | 91.6% | > 25 µM | O=C1CCC(N2Cc3cc(OC[C@@H]4CCCCN4C(=O)Cc4cscn4)ccc3C2=O)C(=O)N1 (stereo partly drawn) [Compound I-72m] |
| 92.7% | 7.3% | 0.043 µM | O=C1CCC(N2Cc3cc(OC[C@H]4CCCCN4Cc4ccc(OCCN5CCOCC5)cc4)ccc3C2=O)C(=O)N1 (stereo partly drawn) [Compound I-50cg] |
| 79.2% | 20.8% | 3.2 µM | CN(C)Cc1ncc(-c2ccc(Oc3cc(Cl)cnc3CN3CCCC[C@H]3COc3ccc4c(c3)CN(C3CCC(=O)NC3=O)C4=O)cc2)n1C (stereo partly drawn) [Compound I-50z] |
| 98.3% | 1.7% | 0.022 µM | O=C1CCC(N2Cc3cc(OC[C@@H]4CCCCN4Cc4c(F)cccc4Cl)ccc3C2=O)C(=O)N1 (stereo partly drawn) [Compound I-50n] |
